Experimental data from ChEMBL document CHEMBL1130508, “Synthesis of 7-membered cyclic hydroxyguanidines: Novel HIV-1 protease inhibitors” (Bioorg Med Chem Lett, 1997).
pKi: −log10 of the molar value.

Target: Human immunodeficiency virus type 1 protease (Human immunodeficiency virus 1, UniProt Q72874)
Assay: The compound was evaluated for its inhibition constant against HIV-1 protease (HIV PR)

Row | pKi | SMILES
1 | 5.52 | O[C@@H]1[C@@H](O)[C@@H](Cc2ccccc2)N(Cc2ccccc2)C(=NOCc2ccccc2)N(Cc2ccccc2)[C@@H]1Cc1ccccc1
2 | 7.38 | ON=C1N(Cc2ccccc2)[C@H](Cc2ccccc2)[C@H](O)[C@@H](O)[C@@H](Cc2ccccc2)N1Cc1ccccc1
